Experimental data as given in patent EP3057951B1, “METHYLENE LINKED QUINOLINYL MODULATORS OF ROR-GAMMA-T” (Janssen Pharmaceutica NV, priority 2013, dated 2015).
Counter-ions that a name gives are not always drawn. Like-named read-outs stand apart in the source and are kept apart here.

What was measured:
[1] = target: T1, wild type human RORγt ligand binding domain (RORyt LBD) (Homo sapiens, UniProt P51449); test: RORγt ThermoFluor assay (thermal shift, binding affinity KD)
T1 construct: His-tag (N); TurboTEV protease cleavage site (ENLYFQG) (N); made in house; host or cells: E. coli (pHIS1, modified pET vector)
T1 sequence (P51449 258-518): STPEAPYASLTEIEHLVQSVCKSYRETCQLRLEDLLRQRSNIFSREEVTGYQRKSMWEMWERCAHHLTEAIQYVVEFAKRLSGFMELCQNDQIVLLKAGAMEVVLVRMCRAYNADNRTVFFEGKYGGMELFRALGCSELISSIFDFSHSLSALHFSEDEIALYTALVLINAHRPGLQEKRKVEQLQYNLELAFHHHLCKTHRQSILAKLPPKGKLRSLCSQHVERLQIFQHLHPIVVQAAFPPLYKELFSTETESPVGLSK

[2] = target: T2, wild type human RORγt LBD (Homo sapiens, UniProt P51449); test: RORγt (LBD) Reporter Assay (GAL4-luciferase, HEK293T cells); format: cell-based; details: for inhibition at 6 µM: HEK-293T, read-out: RORγt (LBD) Reporter Assay, % inhibition @ 6 µM, 6 µM compound concentration; for RORγt (LBD) Reporter Assay, % inhibition @ 6 µM: 6 µM compound concentration
T2 construct: expressed in transfected cells; host or cells: HEK293T
T2 sequence (P51449 258-518): T1 sequence (P51449 258-518)

[3] = HEK293T cells, value after the comma with ∼, > or < could not be included in the average

Molecule `COc1nc2ccc(C(O)(c3cncn3C)c3cnnn3C)cc2c(Cl)c1Cc1ccc(C(F)(F)F)cc1` (racemic) [Example 89a, (4-Chloro-2-methoxy-3-(4-(trifluoromethyl)benzyl)quinolin-6-yl)(1-methyl-1H-1,2,3-triazol-5-yl)(1-methyl-1H-imidazol-5-yl)methanol] has a Kd [1] of 0.29 nM, an IC50 [2, 3] of 4.8 nM and an inhibition at 6 µM [2] of 98%.
`COc1nc2ccc(C(O)(c3ccc(C)nc3C)c3cnnn3C)cc2c(Cl)c1Cc1ccc(S(C)(=O)=O)cc1` (single isomer, unassigned) [Example 117b, (4-Chloro-2-methoxy-3-(4-(methylsulfonyl)benzyl)quinolin-6-yl)(2,6-dimethylpyridin-3-yl)(1-methyl-1H-1,2,3-triazol-5-yl)methanol] was tested, and the Kd [1] was 1300 nM, the IC50 ([2]; HEK293T cells) was about 4000 nM and the inhibition at 6 µM ([2]; HEK293T cells) was 88%.
`COc1c(Cc2ccccc2)c(C(F)(F)F)nc2ccc(C(O)(c3ccccn3)c3cncn3C)cc12` (single isomer, unassigned) [Example 98c, (3-Benzyl-4-methoxy-2-(trifluoromethyl)quinolin-6-yl)(1-methyl-1H-imidazol-5-yl)(pyridin-2-yl)methanol] was tested, and the Kd [1] was 380 nM, the “RORγt (LBD) Reporter Assay, % inhibition @ 6 µM” value (“RORγt … % inhibition @ 6 µM” for short) ([2]; 6 µM) was 96% and the IC50 [2, 3] was 420 nM.
`Cn1cncc1C(O)(c1ccc2nc(C(F)(F)F)c(Cc3ccccc3)c(Cl)c2c1)c1ccccn1` (stereo not drawn) [Example 97, (3-Benzyl-4-chloro-2-(trifluoromethyl)quinolin-6-yl)(1-methyl-1H-imidazol-5-yl)(pyridin-2-yl)methanol•TFA] was tested, and the Kd [1] was 67 nM, the IC50 [2, 3] was 200 nM and the inhibition at 6 µM [2] was 96%.
Work on `Cn1cncc1C(O)(c1ccc(C(F)(F)F)nc1)c1ccc2nc(-c3nccn3C)c(Cc3ccccc3)c(C#N)c2c1` (stereo not drawn) [Example 153, 3-Benzyl-6-(hydroxy(1-methyl-1H-imidazol-5-yl)(6-(trifluoromethyl)pyridin-3-yl)methyl)-2-(1-methyl-1H-imidazol-2-yl)quinoline-4-carbonitrile^.TFA] yielded a Kd [1] of 15000 nM, an IC50 ([2]; HEK293T cells) of over 6000 nM and an inhibition at 6 µM ([2]; HEK293T cells) of 44%.
Work on `COCCOc1nc2ccc(C(O)(c3ccc(Cl)cc3)c3cncn3C)cc2c(Cl)c1Cc1ccc(-n2cccn2)cc1` (stereo not drawn) [Example 56] yielded a Kd [1] of 200 nM, an IC50 [2, 3] of 450 nM and an inhibition at 6 µM [2] of 101%.
For `CN(C)c1nc2ccc(C(O)(c3ccc(C(F)(F)F)nc3)c3cncn3C)cc2c(Cl)c1Cc1ccc(-n2cccn2)cc1` (stereo not drawn) [Example 132, {4-Chloro-2-(dimethylamino)-3-[4-(1H-pyrazol-1-yl)benzyl]quinolin-6-yl}(1-methyl-1H-imidazol-5-yl)[6-(trifluoromethyl)pyridin-3-yl]methanol], the Kd [1] was 36 nM, the IC50 ([2]; HEK293T cells) was 45 nM and the inhibition at 6 µM ([2]; HEK293T cells) was 108%.
`COc1nc2ccc(C(O)(c3sc(C)nc3C)c3cnnn3C)cc2c(Cl)c1Cc1ccc(-n2cccn2)cc1` (single isomer, unassigned) [Example 21c, (3-(4-(1H-Pyrazol-1-yl)benzyl)-4-chloro-2-methoxyquinolin-6-yl)(2,4-dimethylthiazol-5-yl)(1-methyl-1H-1,2,3-triazol-5-yl)methanol] was tested, and the Kd [1] was 0.08 nM, the “RORγt … % inhibition @ 6 µM” value ([2]; 6 µM) was 98% and the IC50 [2, 3] was 8.7 nM.
With `COc1nc2ccc(C(O)(c3cnnn3C)C3CCOCC3)cc2c(Cl)c1Cc1ccc(C(F)(F)F)cc1` (single isomer, unassigned) [Example 85c, (4-Chloro-2-methoxy-3-(4-(trifluoromethyl)benzyl)quinolin-6-yl)(1-methyl-1H-1,2,3-triazol-5-yl)(tetrahydro-2H-pyran-4-yl)methanol] the Kd [1] was 2.8 nM, the “RORγt … % inhibition @ 6 µM” value ([2]; 6 µM) was 100% and the IC50 [2, 3] was 17 nM.
Molecule `COC1CN(c2nc3ccc(C(O)(c4ccc(C(F)(F)F)nc4)c4cncn4C)cc3c(Cl)c2Cc2ccc(-n3cccn3)cc2)C1` (single isomer, unassigned) [Example 133b, {4-Chloro-2-(3-methoxyazetidin-1-yl)-3-[4-(1H-pyrazol-1-yl)benzyl]quinolin-6-yl}(1-methyl-1H-imidazol-5-yl)[6-(trifluoromethyl)pyridin-3-yl]methanol] has a Kd [1] of 330 nM, an IC50 ([2]; HEK293T cells) of 840 nM and an inhibition at 6 µM ([2]; HEK293T cells) of 99%.
`COc1nc2ccc(C(O)(c3cnnn3C)c3cnc(C)n3C)cc2c(Cl)c1Cc1ccc(C(F)(F)F)nc1` (single isomer, unassigned) [Example 43c, (4-Chloro-2-methoxy-3-((6-(trifluoromethyl)pyridin-3-yl)methyl)quinolin-6-yl)(1,2-dimethyl-1H-imidazol-5-yl)(1-methyl-1H-1,2,3-triazol-5-yl)methanol] was tested, and the Kd [1] was 0.96 nM, the “RORγt … % inhibition @ 6 µM” value ([2]; 6 µM) was 99% and the IC50 [2, 3] was 5.3 nM.
In the case of `Cc1ccc(C(O)(c2ccc3nc(N4CCC4)c(Cc4ccc(-n5cccn5)cc4)c(Cl)c3c2)c2cnnn2C)c(C)n1` (stereo not drawn) [Example 141a, {2-Azetidin-1-yl-4-chloro-3-[4-(1H-pyrazol-1-yl)benzyl]quinolin-6-yl}(2,6-dimethylpyridin-3-yl)(1-methyl-1H-1,2,3-triazol-5-yl)methanol], the Kd [1] is reported as 11000 nM, the IC50 ([2]; HEK293T cells) is reported as over 6000 nM and the inhibition at 6 µM ([2]; HEK293T cells) is reported as 42%.
Work on `Cn1cncc1C(O)(c1ccc2nc(C(F)(F)F)c(Cc3ccccc3)c(O)c2c1)c1ccccn1` (stereo not drawn) [Example 152, 3-Benzyl-6-(hydroxy(1-methyl-1H-imidazol-5-yl)(pyridin-2-yl)methyl)-2-(trifluoromethyl)quinolin-4-ol^.TFA] yielded a Kd [1] of 38000 nM, an IC50 ([2]; HEK293T cells) of 4800 nM and an inhibition at 6 µM ([2]; HEK293T cells) of 70%.
With `COc1nc2ccc(C(O)(c3cncn3C)c3cnnn3C)cc2c(Cl)c1Cc1ccc(C(F)(F)F)cc1` (single isomer, unassigned) [Example 89c, (4-Chloro-2-methoxy-3-(4-(trifluoromethyl)benzyl)quinolin-6-yl)(1-methyl-1H-1,2,3-triazol-5-yl)(1-methyl-1H-imidazol-5-yl)methanol] the Kd [1] was 0.26 nM, the “RORγt … % inhibition @ 6 µM” value [2] was 97% and the IC50 [2, 3] was under 2 nM.
`Cn1cncc1C(O)(c1ccc(C(F)(F)F)nc1)c1ccc2nc(N3CC(F)(F)C3)c(Cc3ccc(-n4cccn4)cc3)c(Cl)c2c1` (single isomer, unassigned) [Example 135c, {4-Chloro-2-(3,3-difluoroazetidin-1-yl)-3-[4-(1H-pyrazol-1-yl)benzyl]quinolin-6-yl}(1-methyl-1H-imidazol-5-yl)[6-(trifluoromethyl)pyridin-3-yl]methanol] was tested, and the Kd [1] was 23 nM, the “RORγt … % inhibition @ 6 µM” value ([2]; HEK293T cells, 6 µM) was 95% and the IC50 ([2]; HEK293T cells) was 77 nM.
With `COc1ccc(C(O)(c2cccnc2)c2ccc3nc(OC)c(Cc4ccc(-n5cccn5)cc4)c(Cl)c3c2)cc1` (stereo not drawn) [Example 63] the Kd [1] was 68 nM, the IC50 [2, 3] was 140 nM and the inhibition at 6 µM [2] was 99%.
In the case of `CC(=O)N1CCC(C(O)(c2cc(C)c3nc(C#N)c(Cc4ccc(-n5cccn5)cc4)c(C#N)c3c2)c2cncn2C)CC1` (single isomer, unassigned) [Example 81c, 3-(4-(1H-Pyrazol-1-yl)benzyl)-6-((1-acetylpiperidin-4-yl)(hydroxy)(1-methyl-1H-imidazol-5-yl)methyl)-8-methylquinoline-2,4-dicarbonitrile], the Kd [1] is reported as 49 nM, the “RORγt … % inhibition @ 6 µM” value [2] is reported as 97% and the IC50 [2, 3] is reported as 560 nM.
Molecule `COc1nc2ccc(C(O)(c3oc(C)nc3C)c3cnnn3C)cc2c(Cl)c1Cc1ccc(C(F)(F)F)cc1` (stereo not drawn) [Example 156a, (4-chloro-2-methoxy-3-(4-(trifluoromethyl)benzyl)quinolin-6-yl)(2,4-dimethylozazol-5-yl)(1-methyl-1H-1,2,3-triazol-5-yl)methanol] has a Kd [1] of 0.63 nM, an IC50 ([2]; HEK293T cells) of 6.6 nM and an inhibition at 6 µM ([2]; HEK293T cells) of 94%.
